Laboratory results reported in patent US20120128745A1, “BENZYLIDENE MALONATES” (BASF SE, priority 2009, published 2012).

Legend:
[1] = stabilization (photostability) of Butyl Methoxydibenzoylmethane in O/W emulsion film under solar simulator, HPLC; type: physicochemical; details: 20 μm film on quartz plate, solar simulator 2 h (10 MED)
Method: Testing of stabilization of Butyl Methoxydibenzoylmethane (BMDBM, Parsol 1789):
The photostability of Butyl Methoxydibenzoylmethane is determined by spreading the emulsion as a 20 μm thick film on a quartz plate. The film is irradiated using a solar simulator for 2 h (10 MED). After irradiation, the quartz plate is plunged into 5 ml of tetrahydrofurane. The amount of UV-A filter Butyl Methoxydibenzoylmethane is then determined using high performance liquid chromatography. The residual Butyl Methoxydibenzoylmethane is determined to be 47%.
The photostability of Butyl Methoxydibenzoylmethane in the comparative formulation C is determined as described above for formulation B. The residual Butyl Methoxydibenzoylmethane is determined to be 4%.

[2] = photostability of 4-Methoxybenzylidene-di-tert-butyl-malonate in O/W emulsion film under solar simulator, HPLC; type: physicochemical; details: formulation A, solar simulator up to 10 h (50 MED)
Method: The photostability of Butyl 4-Methoxybenzylidene-di-tert-butyl-malonate is determined by spreading the emulsion as a 20 μm thick film on four quartz plates. The plates are irradiated using a solar simulator for 1 h (5 MED), 2 h (10 MED), 4 h (20 MED) and 10 h (50 MED). After the indicated irradiation times one of the quartz plate is plunged into 5 ml of tetrahydrofurane. The amount of UV-B filter 4-Methoxybenzylidene-di-tert-butyl-malonate is then determined using high performance liquid chromatography. The residual 4-Methoxybenzylidene-di-tert-butyl-malonate is determined to be 100% (±1%) in all cases.

Structure (SMILES) | residual Butyl Methoxydibenzoylmethane ([1]; comparative formulation C (without benzylidene malonate)) [%] | residual Butyl Methoxydibenzoylmethane ([1]; formulation B (with 4-Methoxybenzylidene-di-tert-butyl-malonate)) [%] | photostability in an O/W sunscreen formulation [2]
COc1ccc(C(=O)CC(=O)c2ccc(C(C)(C)C)cc2)cc1 [Butyl Methoxydibenzoylmethane, 1,3-Propanedione, 1-[4-(1,1-dimethylethyl)phenyl]-3-(4-methoxyphenyl)-] | 4 | 47 | 
COc1ccc(C=C(C(=O)OC(C)(C)C)C(=O)OC(C)(C)C)cc1 [Example 18, 4-Methoxybenzylidene-di-tert-butyl-malonate] |  |  | complete photostability
